# Experimental data published in ChEMBL document CHEMBL4385604, “Identification of Pyrrolo[2,3- d]pyrimidine-Based Derivatives as Potent and Orally Effective Fms-like Tyrosine Receptor Kinase 3 (FLT3) Inhibitors for Treating Acute Myelogenous Leukemia” (J Med Chem, 2019).
# Tests used:
# [1] = Elimination half-life in Sprague-Dawley rat at 5 mg/kg, po by LC-MS/MS analysis; type: ADME, organism-based; conditions: in vivo, read-out: beta t1/2 (converted)
# MV4-11 [2] = assay: Cell cycle arrest in human MV4-11 cells assessed as accumulation at G0/G1 phase at 10 nM after 24 hrs by propidium iodide staining-based flow cytometric analysis (reference value: 48.76%); type: functional
# [3] = Toxicity in NOD/SCID mouse xenografted with human MV4-11 cells at 10 mg/kg, po qd for 18 days; type: organism-based; conditions: in vivo, 432 h
# MV4-11 [4] = assay: Cell cycle arrest in human MV4-11 cells assessed as accumulation at G0/G1 phase at 3 nM after 24 hrs by propidium iodide staining-based flow cytometric analysis (reference value: 48.76%); type: functional
# MOLM-13 [5] = assay: Induction of apoptosis in human MOLM13 cells assessed as viable cells at 1 uM after 48 hrs by Annexin V/propidium iodide staining based flow cytometry (reference value: 88.2%); type: functional; conditions: MOLM-13, 48 h, read-out: Activity
# MV4-11 [6] = assay: Induction of apoptosis in human MV4-11 cells assessed as late apoptotic cells at 100 nM after 48 hrs by Annexin V/propidium iodide staining based flow cytometry (reference value: 2.83%); type: functional
# [7] = Plasma clearance in Sprague-Dawley rat at 5 mg/kg, po by LC-MS/MS analysis; type: ADME, organism-based
# MV4-11 [8] = assay: Antitumour activity against human MV4-11 cells xenografted in NOD/SCID mouse assessed as tumour growth inhibition at 1 mg/kg, po qd for 14 days measured every two days during compound dosing by caliper method relative to control; type: functional; conditions: MV4-11, po, read-out: TGI
# MOLM-13 [9] = assay: Induction of apoptosis in human MOLM13 cells assessed as late apoptotic cells at 10 nM after 48 hrs by Annexin V/propidium iodide staining based flow cytometry (reference value: 5.52%); type: functional
# [10] = target: Receptor-type tyrosine-protein kinase FLT3 (Homo sapiens) (UniProt P36888); assay: Inhibition of FLT3 autophosphorylation in human MOLM13 cells assessed as ratio of phosphorylated FLT3 to beta-actin level at 100 nM after 2 hrs by Western blot analysis relative to control; type: cell-based
# [11] = target: T1, Receptor-type tyrosine-protein kinase FLT3 (Homo sapiens, UniProt P36888)
# T1 sequence (P36888 whole entry): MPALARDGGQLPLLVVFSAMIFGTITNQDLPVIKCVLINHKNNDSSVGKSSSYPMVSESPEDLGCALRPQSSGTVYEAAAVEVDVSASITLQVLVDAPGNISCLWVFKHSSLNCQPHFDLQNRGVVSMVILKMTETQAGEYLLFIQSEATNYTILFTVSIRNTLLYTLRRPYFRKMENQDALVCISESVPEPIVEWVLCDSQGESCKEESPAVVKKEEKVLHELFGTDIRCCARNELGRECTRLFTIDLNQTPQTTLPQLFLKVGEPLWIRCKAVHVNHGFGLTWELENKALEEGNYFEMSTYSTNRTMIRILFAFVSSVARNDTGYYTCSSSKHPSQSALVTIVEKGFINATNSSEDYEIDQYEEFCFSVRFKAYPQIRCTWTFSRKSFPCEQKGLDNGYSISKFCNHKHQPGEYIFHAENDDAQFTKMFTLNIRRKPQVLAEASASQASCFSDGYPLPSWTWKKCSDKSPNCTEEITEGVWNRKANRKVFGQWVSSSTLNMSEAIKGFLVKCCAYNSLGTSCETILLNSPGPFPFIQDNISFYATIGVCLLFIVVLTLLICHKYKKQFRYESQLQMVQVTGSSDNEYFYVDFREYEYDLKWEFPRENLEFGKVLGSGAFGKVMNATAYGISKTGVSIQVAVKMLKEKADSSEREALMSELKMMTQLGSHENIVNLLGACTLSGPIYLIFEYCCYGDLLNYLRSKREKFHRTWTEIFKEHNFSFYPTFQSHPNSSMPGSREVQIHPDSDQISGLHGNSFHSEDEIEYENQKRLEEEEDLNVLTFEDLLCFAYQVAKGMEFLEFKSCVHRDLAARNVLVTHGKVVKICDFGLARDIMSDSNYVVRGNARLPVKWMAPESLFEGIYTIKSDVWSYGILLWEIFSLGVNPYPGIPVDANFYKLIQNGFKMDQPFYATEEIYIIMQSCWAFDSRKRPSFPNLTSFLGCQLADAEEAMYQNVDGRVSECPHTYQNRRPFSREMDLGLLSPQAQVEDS
# Homo sapiens = organism: Homo sapiens; assay: Inhibition of MAPK in human MOLM13 cells assessed as ratio of phosphorylated ERK to beta-actin level at 30 nM after 2 hrs by Western blot analysis relative to control; type: cell-based
# [12] = tested on: Receptor-type tyrosine-protein kinase FLT3 (Homo sapiens), P36888 [UNDEFINED MUTATION]; assay: Inhibition of FLT3 ITD mutant in human MV4-11 cells assessed as ratio of phosphorylated STAT5 to beta-actin level at 100 nM after 2 hrs by Western blot analysis relative to control; type: cell-based
# MOLM-13 [13] = assay: Induction of apoptosis in human MOLM13 cells assessed as early apoptotic cells at 1 uM after 48 hrs by Annexin V/propidium iodide staining based flow cytometry (reference value: 5.97%); type: functional
# [14] = target: Receptor-type tyrosine-protein kinase FLT3 (Homo sapiens, UniProt P36888, R834Q); assay: Binding affinity to human partial length FLT3 R834Q mutant (V592 to Y969 residues) expressed in HEK293 cells measured after 1 hr by qPCR analysis; type: cell-based
# MOLM-13 [15] = assay: Induction of apoptosis in human MOLM13 cells assessed as early apoptotic cells at 1 nM after 48 hrs by Annexin V/propidium iodide staining based flow cytometry (reference value: 5.97%); type: functional
# MV4-11 [16] = assay: Antitumour activity against human MV4-11 cells xenografted in NOD/SCID mouse assessed as tumour growth inhibition at 3 mg/kg, po qd for 14 days measured every two days during compound dosing by caliper method relative to control; type: functional; conditions: MV4-11, po, read-out: TGI
# MV4-11 [17] = assay: Cell cycle arrest in human MV4-11 cells assessed as accumulation at G2/M phase at 3 nM after 24 hrs by propidium iodide staining-based flow cytometric analysis (reference value: 21.12%); type: functional
# MV4-11 [18] = assay: Induction of apoptosis in human MV4-11 cells assessed as late apoptotic cells at 10 nM after 48 hrs by Annexin V/propidium iodide staining based flow cytometry (reference value: 2.83%); type: functional
# MOLM-13 [19] = assay: Induction of apoptosis in human MOLM13 cells assessed as viable cells at 1 nM after 48 hrs by Annexin V/propidium iodide staining based flow cytometry (reference value: 88.2%); type: functional; conditions: MOLM-13, 48 h, read-out: Activity
# MV4-11 [20] = assay: Induction of apoptosis in human MV4-11 cells assessed as early apoptotic cells at 10 nM after 48 hrs by Annexin V/propidium iodide staining based flow cytometry (reference value: 2.76%); type: functional
# MOLM-13 [21] = assay: Cell cycle arrest in human MOLM13 cells assessed as accumulation at S phase at 10 nM after 24 hrs by propidium iodide staining-based flow cytometric analysis (reference value: 41.95%); type: functional
# MV4-11 [22] = assay: Cell cycle arrest in human MV4-11 cells assessed as accumulation at S phase at 1 nM after 24 hrs by propidium iodide staining-based flow cytometric analysis (reference value: 30.12%); type: functional
smiles,measurement,setting,value
C=CCn1cc(-c2ccc(NC(=O)Nc3cc(C(C)(C)C)on3)cc2)c2c(N)ncnc21,half-life,[1],2.06 h
same,Activity,MV4-11 [2],95.74%
same,Activity,[3],Non-Toxic
same,Activity,MV4-11 [4],87.11%
same,viability at 1 µM,MOLM-13 [5],29%
same,Activity,MV4-11 [6],12.7%
same,CL/F,[7],20.3 mL/min/kg
same,inhibition in vivo at 1 mg/kg,MV4-11 [8],70.5%
same,Activity,MOLM-13 [9],18.3%
same,fold change (FC),[10],0
same,IC50,[11],7 nM
same,fold change (FC),Homo sapiens,0.1
same,fold change (FC),[12],0
same,Activity,MOLM-13 [13],23.5%
same,Kd,[14],10.2 nM
same,Activity,MOLM-13 [15],5.67%
same,inhibition in vivo at 3 mg/kg,MV4-11 [16],98.2%
same,Activity,MV4-11 [17],4.08%
same,Activity,MV4-11 [18],11%
same,viability at 0.001 µM,MOLM-13 [19],85%
same,Activity,MV4-11 [20],9.57%
same,Activity,MOLM-13 [21],3.01%
same,Activity,MV4-11 [22],32.51%
